Several values for one entry are separate records, joined by “and”; a condition that tells them apart may be missing. Equal values may be shown once. Read-outs that look alike come from different tables or passages of the source. Each block holds one compound with its values, some of them ahead of it.
Key:
[1] = tested on: rat kidney slices; assay: In vitro uptake assay in kidney slices; assay type: in vitro ADME; details: M8 5.0 µM; for inhibition of the uptake of M8 in kidney slices: PCG 0.2 and 0.5 mM, PRO 0.1 mM, PAH 0.2 and 0.5 mM, TEA 0.2 mM, 10 min, ETV 10 µM
Procedure: The renal cortex was cut into 300 µm slices with a ZQP-86 tissue slicer (Shanghai Zhisun Equipment Co., Ltd., Shanghai, China; surface area 0.15 cm^2). […] Next, the kidney slices were prepared as previously described. Two slices per well were placed into 37 °C buffer filled with oxygen for pre-incubation for 3 min and then gently moved into a 24-well cell culture plate containing 1 mL oxygenated buffer at 4 °C or 37 °C. The uptakes of ETV (10 µM), Y101 (2.0 µM), M8 (5.0 µM) and M9 (1.0 µM) were measured at 5, 10, 15 and 30 min after the treatment, respectively. […] Following incubation at the designated time, kidney slices were collected, rinsed with ice-cold buffer three times, and dried on filter paper. After weighing and homogenization (IKA-T 10 homogenizer; IKA, Staufen, Germany), the concentrations of Y101, M8, M9 and ETV of kidney slice homogenates were determined as in the description below.
(§1) Biological samples were prepared as previously described. Aliquots (50 µL) of urine, plasma, kidney homogenates, or cell lysates were individually mixed with 150 µL methanol and 50 µL working solution of internal standard (acetaminophen or bestatin), followed by vortexing for 1 min and centrifuging at 13,800 g for 10 min. […] The resulting supernatant (1 µL) was subjected to LC-MS/MS for the assessment of Y101, M8, M9 and ETV, respectively. […] The concentrations of ETV, Y101, M8 and M9 were determined by an AB QTRAP 5500 LC–MS/MS System (Foster City, CA, USA) as previously described. Chromatographic separation was achieved on an Infinitylab Poroshell 120 EC-C18 (50 mm × 2.1 mm, 2.7 µm, Agilent Technology Inc., CA, USA) at 40 °C. The mobile phase consisted of formic acid-acetonitrile (0.05:100, v/v) and a mixture of 1 mmol-ammonium acetate-acetonitrile-formic acid (95:5:0.05, v/v/v) at a flow rate of 0.3 mL/min. […] Analyst1.5.2 software was used for data processing and analysis.

[2] = biological target: T1, hOAT3 (Homo sapiens, UniProt Q8TCC7); assay: In vitro uptake assay in hOAT3-HEK293 cells
T1 sequence (Q8TCC7 1-542): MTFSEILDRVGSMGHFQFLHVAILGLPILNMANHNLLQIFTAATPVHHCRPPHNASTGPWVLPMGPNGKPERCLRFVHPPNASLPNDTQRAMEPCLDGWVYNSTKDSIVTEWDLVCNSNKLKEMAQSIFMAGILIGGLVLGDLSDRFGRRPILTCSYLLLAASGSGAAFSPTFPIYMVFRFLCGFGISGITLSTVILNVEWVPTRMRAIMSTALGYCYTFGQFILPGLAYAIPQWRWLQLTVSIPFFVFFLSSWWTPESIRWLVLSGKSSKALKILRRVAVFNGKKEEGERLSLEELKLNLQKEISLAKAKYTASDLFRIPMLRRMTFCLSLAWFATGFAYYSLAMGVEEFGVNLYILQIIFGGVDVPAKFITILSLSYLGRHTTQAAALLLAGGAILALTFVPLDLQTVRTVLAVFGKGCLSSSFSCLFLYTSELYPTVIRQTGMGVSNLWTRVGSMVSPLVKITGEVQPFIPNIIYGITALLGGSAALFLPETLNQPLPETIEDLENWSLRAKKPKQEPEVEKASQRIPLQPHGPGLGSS
Procedure: The hOAT1-HEK293, hOAT3-HEK293 and mock cells were cultured in Dulbecco modified Eagle medium (DMEM) containing 10% fetal bovine serum (FBS) and 1% penicillin/streptomycin in an atmosphere of 5% CO2 air at 37 °C. The HEK293 cells were plated on 24-well plates at a density of 5 × 10^5 cells/well. […] Uptake assay was initiated by adding 1 mL of the transporter buffer containing Y101, M8, ETV or probe substrate. Following incubation with gentle shaking, the uptake was terminated at designated time by removing the transporter buffer and washing cells three times with 1 mL of ice-cold HBSS. Next, substrates of Y101, M8, ETV, PAH and ES in cell monolayer were released by lysing the cells with 0.3 mL of 0.1% Triton X-100 for 2 h and determined by liquid chromatography–tandem mass spectrometry (LC–MS/MS). In the time-course uptake assay, Y101 (2.0 µM) and M8 (10 µM) in the presence or absence of PRO (100 µM) were measured in hOAT1-HEK293, hOAT3-HEK293 and mock cells. The concentration-dependent uptake of M8 was determined in hOAT3-HEK293 cells, and incubation time (5 min) was optimized. The uptake of M8 (10 µM) with or without ETV was examined in hOAT3-HEK293 cells. The uptake of ETV (10 µM) with or without Y101 or M8 was also measured in hOAT1-HEK293 and hOAT3-HEK293 cells, respectively. Furthermore, PAH and ES at concentrations of 10 µM were used as positive control in hOAT1-HEK293 and hOAT3-HEK293 cells, respectively. Protein concentrations were measured by the bicinchoninic acid procedure (Solarbio, Beijing, China) using bovine serum albumin as the standard.
as §1

[3] = Pharmacokinetic study in rats, intravenous Y101 with or without PRO; assay type: in vivo, Sprague–Dawley (SD) rats; details: for Tmax / half-life / AUC(0-inf) / AUC(0-t) / Cmax: male, Sprague-Dawley, rat, plasma, iv, 25 mg/kg, n = 3
Procedure: The effect of PRO on the pharmacokinetics of Y101 was studied in rats. Male rats surgically prepared with indwelling jugular cannula were randomly divided into two groups (n = 3): (1) Y101 alone (25 mg/kg) as a control and (2) Y101 + PRO (25 mg/kg for Y101 and 100 mg/kg for PRO) as an experimental group. The intravenous dose of Y101 was prepared as previously described. Both Y101 and PRO were injected by caudal vein to rats at volume of 5 mL/kg.
(§2) Following administration, serial blood samples were collected through jugular vein pre-dose (0 h) and post-dose at 0.033, 0.083, 0.25, 0.5, 1, 1.5, 2, 3, 4, 6, 9, 12, 24 and 30 h in heparinized Eppendorf tubes. The resulting samples were centrifuged at 13,800× g at 4 °C for 5 min to obtain plasma. All plasma samples were stored at −70 °C until analysis.
(§3) Biological samples were prepared as previously described.
(§4) Non-compartmental analysis with Phenix WinNonlin (version 8.1; Pharsight, Certara Corp, Princeton, NJ) was used to calculate the main pharmacokinetic parameters of ETV, Y101, M8 and M9 for individual rats. The observed values were reported for maximum concentration (Cmax) and time to reach maximum concentration (Tmax), while the area under the plasma concentration–time curve (AUC) was calculated via the default trapezoidal-up, log-trapezoidal-down approach.

[4] = Pharmacokinetic DDI study in rats, oral Y101 and/or ETV; assay type: in vivo, Sprague–Dawley (SD) rats; details: Sprague-Dawley, rat, plasma, n = 4
Procedure: (§5) Additionally, DDI between Y101 and ETV was investigated by monitoring time-course plasma Y101 in rats with surgery as described above. Animals were randomly placed into three groups (n = 4): (1) Y101 alone (25 mg/kg for intravenous treatment and 60 mg/kg for oral administration); (2) ETV (0.06 mg/kg); and (3) Y101 (25 mg/kg for intravenous treatment and 60 mg/kg for oral administration) + ETV (0.06 mg/kg). ETV was dissolved in saline at concentration of 12 µg/mL. Rats received an oral or intravenous dose of Y101 and/or ETV at volume of 5 mL/kg. The doses used in in vivo pharmacokinetic studies were selected in accordance with therapeutic doses of Y101 and ETV commonly used clinically and in previous studies.
as §2, §3, §4

[5] = Renal excretion study in rats (cumulative urinary excretion, renal clearance); assay type: in vivo, Sprague–Dawley (SD) rats; details: for CL renal: Sprague-Dawley, rat, urine, iv, read-out: CLR (renal clearance) (converted)
Procedure: To investigate the effects of PRO on the renal excretion of Y101 and its metabolites, rats received an intravenous dose of Y101 (25 mg/kg) or Y101 + PRO (25 mg/kg for Y101 and 100 mg/kg for PRO) via the caudal vein. In order to verify the DDI between Y101 and ETV in renal excretion, rats received an intravenous dose of Y101 (25 mg/kg) and/or ETV (0.06 mg/kg) by caudal vein.
[…] Subsequently, urine samples were stored at −70 °C until analysis. The cumulative urinary excretion and renal clearance (CLR) were calculated as previously described.
as §3

[6] = Pharmacokinetic DDI study in rats, intravenous Y101 and/or ETV; assay type: in vivo, Sprague–Dawley (SD) rats; details: Sprague-Dawley, rat, plasma, n = 4
Procedure: as §5, §2, §3, §4

[7] = i.v. Y101 25 mg/kg + PRO 100 mg/kg vs Y101 alone
[8] = i.v. Y101 25 mg/kg + PRO 100 mg/kg
[9] = oral Y101 60 mg/kg + ETV 0.06 mg/kg
[10] = i.v. Y101 25 mg/kg + ETV 0.06 mg/kg

inhibition of the uptake of ES in hOAT3-HEK293 cells ([2]; ES 10 µM, PRO 100 µM, 10 min): inhibited in the presence of PRO
inhibition of the uptake of M8 in hOAT3-HEK293 cells ([2]; M8 10 µM, PRO 100 µM, ETV 10 µM): inhibited by the presence of PRO
Compound: CCCN(CCC)S(=O)(=O)c1ccc(C(=O)O)cc1 [PRO, probenecid, reference compound]
inhibition of the uptake of M8 in kidney slices [1]: inhibited significantly

Compound: C[C@]12CC[C@@H]3c4ccc(OS(=O)(=O)[O-])cc4CC[C@H]3[C@@H]1CCC2=O.[Na+] [ES, Estrone 3-sulfate sodium salt, reference compound]
substrate of hOAT3 (uptake in hOAT3-HEK293 vs mock-HEK293 cells) ([2]; Y101 2.0 µM, M8 10 µM, ES 10 µM): selectively accumulated

elevation in AUC value on co-administration of PRO [3, 7]: 56%
increase in Cmax value on co-administration of PRO [3, 7]: 1.4 fold
Tmax [3, 8]: 1.33 h
half-life [3, 8]: 1.32 h
AUC(0-inf) [3, 8]: 536 ng·h/mL
AUC(0-t) [3, 8]: 527 ng·h/mL
Cmax [3, 8]: 219 ng/mL
AUC(0-inf) ([3]; i.v. Y101 25 mg/kg alone): 343 ng·h/mL
AUC(0-t) ([3]; i.v. Y101 25 mg/kg alone): 335 ng·h/mL
Cmax ([3]; i.v. Y101 25 mg/kg alone): 156 ng/mL
Tmax ([3]; i.v. Y101 25 mg/kg alone): 1.17 h
half-life ([3]; i.v. Y101 25 mg/kg alone): 1.01 h
AUC(0-inf) [4, 9]: 657 ng·h/mL
AUC(0-t) [4, 9]: 645 ng·h/mL
Cmax [4, 9]: 127 ng/mL
AUC(0-inf) ([4]; oral Y101 60 mg/kg alone): 645 ng·h/mL
AUC(0-t) ([4]; oral Y101 60 mg/kg alone): 641 ng·h/mL
Cmax ([4]; oral Y101 60 mg/kg alone): 144 ng/mL
Tmax [4, 9]: 2.5 h
half-life [4, 9]: 1.46 h
Tmax ([4]; oral Y101 60 mg/kg alone): 3 h
half-life ([4]; oral Y101 60 mg/kg alone): 1.16 h
CL renal ([5]; 25 mg/kg, i.v. Y101 25 mg/kg + PRO 100 mg/kg): 2 mL/min/kg
CL renal ([5]; 25 mg/kg, i.v. Y101 25 mg/kg alone (Table 1, control of PRO study)): 2.08 mL/min/kg
CL renal ([5]; 25 mg/kg, i.v. Y101 25 mg/kg alone (Table 2, control of ETV study)): 2.47 mL/min/kg
CL renal [5, 10]: 2.67 mL/min/kg
cumulative excretion in the urine ([5]; i.v. Y101 25 mg/kg + ETV 0.06 mg/kg, at 30 h post-dose): 1.50 ± 0.232 % of the dose
cumulative urinary excretion ([5]; i.v. Y101 25 mg/kg + PRO 100 mg/kg, 0 to 48 h): 1.36 ± 0.106%
AUC(0-inf) [6, 10]: 471 ng·h/mL
AUC(0-t) [6, 10]: 464 ng·h/mL
Cmax [6, 10]: 171 ng/mL
AUC(0-inf) ([6]; i.v. Y101 25 mg/kg alone): 553 ng·h/mL
AUC(0-t) ([6]; i.v. Y101 25 mg/kg alone): 547 ng·h/mL
Cmax ([6]; i.v. Y101 25 mg/kg alone): 134 ng/mL
Tmax [6, 10]: 1.25 h
half-life [6, 10]: 1.8 h
Tmax ([6]; i.v. Y101 25 mg/kg alone): 1.13 h
half-life ([6]; i.v. Y101 25 mg/kg alone): 1.14 h
Compound: C[N+](C)([O-])CCOc1ccc(CC(NC(=O)c2ccccc2)C(=O)O)cc1 (stereo not drawn) [M9]
cumulative urinary excretion ([5]; i.v. Y101 25 mg/kg alone, at 48 h post-dose): 1.42 ± 0.04 % of the dose and 1.42 % of the dose
time and temperature dependence of uptake in kidney slices ([1]; 37 °C vs 4 °C, Y101 2.0 µM, M9 1.0 µM, 5 to 30 min): did not show significant time or temperature dependence

Compound: CC1(C)S[C@@H]2[C@H](NC(=O)Cc3ccccc3)C(=O)N2[C@H]1C(=O)O [PCG, benzylpenicillin]
inhibition of the uptake of M8 in kidney slices [1]: inhibited significantly

Source: paper PMC9967645, “OAT3 Participates in Drug–Drug Interaction between Bentysrepinine and Entecavir through Interactions with M8—A Metabolite of Bentysrepinine—In Rats and Humans In Vitro” (Molecules, 2023)
